From US20120039850A1, “HCV Combination Therapies Comprising Pegylated Interferon, Ribavirin and Telaprevir” (Janssen Pharmaceutica NV, priority 2009, published 2012)
Read-outs that look alike come from different tables or passages of the source.

Experiments:
genotype 1 HCV = test: PROVE 1 Phase 2b clinical trial: viral response (HCV RNA, Roche COBAS TaqMan assay); format: in vivo, human
From the text: Twenty percent of those treated with telaprevir were either Hispanic (10%) or African American (10%). In the control arm, 8% of patients were Hispanic and 12% were African American. […] On average, patients were 49 years old (21-63 years range) with a mean weight of 82.1 kg (46-136 kg range).
The Roche COBAS TaqMan® assay was used to measure HCV RNA (LOD 10 IU/mL). For viral kinetic modeling, values reported as <10 IU/mL were replaced with 5 IU/mL.
Severity of fibrosis was defined by histologic assessment from each center's local pathologist.
The Roche COBAS TaqMan® assay was used to measure HCV RNA (limit of detection 10 IU/mL). For viral kinetic modeling, values reported as <10 IU/mL were replaced with 5 IU/mL.

[1] = test system: VX-950-resistant variants of HCV; test: IC50 shift of VX-950-resistant variants
[2] = parameters: species or system human; settings: in vivo
[3] = in vivo
HCV genotype 1 = test: Phase 1b trial (Study VX04-950-101); settings: subjects infected with HCV genotype 1
replicon = test: Predicted human liver exposure relative to replicon assay IC50/IC90; settings: dose range studied

## CCC[C@H](NC(=O)[C@@H]1[C@H]2CCC[C@H]2CN1C(=O)[C@@H](NC(=O)[C@@H](NC(=O)c1cnccn1)C1CCCCC1)C(C)(C)C)C(=O)C(=O)NC1CC1 [VX-950]
Genotype 1 HCV
  % with SVR: 62%
Genotype 1 HCV; AA (African American)
  % with SVR: 44%
Genotype 1 HCV; L (Latino)
  % with SVR: 65%
[1]
  fold increase in IC50: 7-20 fold
[2]
  pharmacokinetics among the different racial/ethnic groups: No differences
[3]
  oral bioavailability: orally bioavailable
HCV genotype 1
  antiviral activity: substantial antiviral activity
replicon
  predicted average liver concentration, fold of the replicon assay IC90: up to 57 fold
